Structures are written as SMILES.

Chain of V1 receptor (P30560 whole entry): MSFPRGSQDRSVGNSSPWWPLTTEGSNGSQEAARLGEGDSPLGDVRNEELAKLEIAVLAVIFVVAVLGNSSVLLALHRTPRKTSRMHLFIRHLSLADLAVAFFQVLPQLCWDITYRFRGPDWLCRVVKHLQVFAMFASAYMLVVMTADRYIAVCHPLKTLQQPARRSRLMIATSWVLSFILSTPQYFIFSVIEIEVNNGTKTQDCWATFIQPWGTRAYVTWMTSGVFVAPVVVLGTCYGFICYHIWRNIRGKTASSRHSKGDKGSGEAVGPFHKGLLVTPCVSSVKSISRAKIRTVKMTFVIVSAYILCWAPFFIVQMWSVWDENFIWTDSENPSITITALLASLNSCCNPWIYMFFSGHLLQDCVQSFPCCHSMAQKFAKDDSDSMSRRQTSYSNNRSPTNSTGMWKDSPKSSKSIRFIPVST

One assay concerns the target V1 receptor (Rattus norvegicus, UniProt P30560). Briefly: biochemical.
Conditions: not given
Format: binding.
As for `CCOc1ccc(C(=O)N2CCC(N3C(=O)CCc4c(F)cc(F)cc43)CC2)c(OC)c1` [Example 139, 5,7-Difluoro-1-[1-(2-methoxy-4-ethoxybenzoyl)-4-piperidinyl]-3,4-dihydrocarbostyril], inhibition was half-maximal at 51 nM (IC50).
For the compound `CS(=O)(=O)NCCCCCCOc1ccc(C(=O)N2CCC(N3C(=O)CCc4ccccc43)CC2)cc1` [Example 142, 1-{1-[4-(6-Methylsulfonylaminohexyloxy)benzoyl]-4-piperidinyl}-3,4-dihydrocarbostyril], half-maximal inhibition (IC50) was put at 100 nM.
On the same count and under the same terms, next, `CCS(=O)(=O)CCCOc1ccc(C(=O)N2CCC(N3C(=O)CCc4ccccc43)CC2)cc1` [Example 143, 1-{1-[4-(3-Ethylsulfonylpropoxy)benzoyl]-4-piperidinyl}-3,4-dihydrocarbostyril]: 550 nM; `CCN(CC)CC(O)CCCCOc1ccc(C(=O)N2CCC(N3C(=O)CCc4ccccc43)CC2)cc1` (stereo not drawn) [Example 144, 1-{1-[4-(6-Diethylamino-5-hydroxyhexyloxy)benzoyl]-4-piperidinyl}-3,4-dihydrocarbostyril]: 22 nM.
On the same count and under the same terms, then `O=CNCCCOc1ccc(C(=O)N2CCC(N3C(=O)CCc4ccc(F)cc43)CC2)cc1` [Example 145, 1-{1-[4-(3-Formylaminopropoxy)benzoyl]-4-piperidinyl}-7-fluoro-3,4-dihydrocarbostyril], with 170 nM; and `NC(=O)[C@H](Cc1ccc(O)cc1)NC(=O)CCCCCOc1ccc(C(=O)N2CCC(N3C(=O)CCc4ccccc43)CC2)cc1` [Example 146, 1-{1-[4-{5-[1-(S)-Carbamoyl-2-(4-hydroxyphenyl)]ethylaminocarbonylpentyloxy}benzoyl]-4-piperidinyl}-3,4-dihydrocarbostyril], with 73 nM.
Same read-out and setting: then `CC(C)[C@H](NC(=O)CCCCCOc1ccc(C(=O)N2CCC(N3C(=O)CCc4ccccc43)CC2)cc1)C(N)=O` [Example 147, 1-{1-[4-{5-[1-(S)-Carbamoyl-2-methyl]propylaminocarbonylpentyloxy}benzoyl]-4-piperidinyl}-3,4-dihydrocarbostyril], with 98 nM; and `CN(C)C(=O)CCCOc1ccc(C(=O)N2CCC(N3C(=O)CCc4ccccc43)CC2)cc1` [Example 148, 1-{1-[4-(3-Dimethylaminocarbonylpropoxy)benzoyl]-4-piperidinyl}-3,4-dihydrocarbostyril], with 360 nM; and `NC(=O)[C@H](Cc1c[nH]cn1)NC(=O)CCCCCOc1ccc(C(=O)N2CCC(N3C(=O)CCc4ccccc43)CC2)cc1` [Example 149, 1-{1-[4-{5-[1-(S)-Carbamoyl-2{4(1H)-imidazoyl}]ethylaminocarbonylpentyloxy)benzoyl]-4-piperidinyl}-3,4-dihydrocarbostyril], with 150 nM.
In the case of `NC(=O)CC[C@H](NC(=O)CCCCCOc1ccc(C(=O)N2CCC(N3C(=O)CCc4ccccc43)CC2)cc1)C(N)=O` [Example 150, 1-{1-[4-(5-[1-(S),3-Dicarbamoyl]propylaminocarbonylpentyloxy)benzoyl]-4-piperidinyl}-3,4-dihydrocarbostyril], the IC50 is 96 nM.
On the same count and under the same terms, next, `CCOc1ccc(C(=O)N2CCC(N3C(=O)C(C(=O)O)Cc4ccccc43)CC2)c(OC)c1` (stereo not drawn) [Example 152, 1-[1-(2-Methoxy-4-ethoxybenzoyl)-4-piperidinyl]-3-carboxy-3,4-dihydrocarbostyril]: 1600 nM; `CSCC[C@H](NC(=O)CCCCCOc1ccc(C(=O)N2CCC(N3C(=O)CCc4ccccc43)CC2)cc1)C(N)=O` [Example 153, 1-{1-[4-(5-[1-(S)-Carbamoyl-3-(methylthio)]propylaminocarbonylpentyloxy)benzoyl]-4-piperidinyl}-3,4-dihydrocarbostyril]: 84 nM; `O=C(CCCCCOc1ccc(C(=O)N2CCC(N3C(=O)CCc4ccccc43)CC2)cc1)c1nc2cnccc2[nH]1` [Example 154, 1-{1-[4-(5-(Imidazo[4,5-c]pyridine-2-yl)carbonylpentyloxy)benzoyl]-4-piperidinyl}-3,4-dihydrocarbostyril]: 200 nM.
Consider `CCOc1ccc(C(=O)N2CCC(N3C(=O)CCc4ccc(F)cc43)CC2)c(O)c1` [Example 155, 1-[1-(2-Hydroxy-4-ethoxybenzoyl)-4-piperidinyl]-7-fluoro-3,4-dihydrocarbostyril], for which the IC50 was 57 nM.
`O=C(c1ccc(OCCCCN2CCN(Cc3ccccc3)CC2)cc1)N1CCC(N2C(=O)CCc3ccccc32)CC1` [Example 156, 1-{1-[4-[(4-Benzyl-1-piperazinyl)butoxy]benzoyl]-4-piperidinyl}-3,4-dihydrocarbostyril] registered an IC50 of 180 nM.
Still for that read-out and setting: then `O=C(c1ccc(OCCCCN2CCNCC2)cc1)N1CCC(N2C(=O)CCc3ccccc32)CC1` [Example 157, 1-{1-[4-[4-(1-Piperazinyl)butoxy]benzoyl]-4-piperidinyl}-3,4-dihydrocarbostyril.dioxalate], with 90 nM.
Regarding `CN1CCN(CCCCOc2ccc(C(=O)N3CCC(N4C(=O)CCc5ccccc54)CC3)cc2)CC1` [Example 158, 1-{1-[4-[4-(4-Methyl-1-piperazinyl)butoxy]benzoyl]-4-piperidinyl}-3,4-dihydrocarbostyril.dioxalate], the IC50 was 100 nM.
On the same count and under the same terms, then `CS(=O)(=O)N1CCN(CCCCOc2ccc(C(=O)N3CCC(N4C(=O)CCc5ccccc54)CC3)cc2)CC1` [Example 159, 1-{1-[4-[4-(4-Methylsulfonyl-1-piperazinyl)butoxy]benzoyl]-4-piperidinyl}-3,4-dihydrocarbostyril], with 98 nM; and `COC(=O)N1CCN(CCCCOc2ccc(C(=O)N3CCC(N4C(=O)CCc5ccccc54)CC3)cc2)CC1` [Example 160, 1-{1-[4-[4-(4-Methoxycarbonyl-1-piperazinyl)butoxy]benzoyl]-4-piperidinyl}-3,4-dihydrocarbostyril], with 220 nM.
Same read-out and setting: next, `O=C(OCCCCOc1ccc(C(=O)N2CCC(N3C(=O)CCc4ccccc43)CC2)cc1)N1CCN(Cc2ccccc2)CC1` [Example 161, 1-{1-[4-[4-(4-Benzyl-1-piperazinyl)carbonyloxybutoxy]benzoyl]-4-piperidinyl}-3,4-dihydrocarbostyril]: 450 nM; `CC(=O)N1CCN(CCCCOc2ccc(C(=O)N3CCC(N4C(=O)CCc5ccccc54)CC3)cc2)CC1` [Example 162, 1-{1-[4-[4-(4-Acetyl-1-piperazinyl)butoxy]benzoyl]-4-piperidinyl}-3,4-dihydrocarbostyril]: 110 nM.
In the case of `O=C(OCCCCOc1ccc(C(=O)N2CCC(N3C(=O)CCc4ccccc43)CC2)cc1)N1CCNCC1` [Example 163, 1-{1-[4-[4-(1-Piperazinyl)carbonyloxybutoxy]benzoyl]-4-piperidinyl}-3,4-dihydrocarbostyril], the IC50 came to 75 nM.
In turn, `COC(=O)[C@H](CCCCNC(=O)OCc1ccccc1)NC(=O)CCCCCOc1ccc(C(=O)N2CCC(N3C(=O)CCc4ccccc43)CC2)cc1` [Example 165, 1-{1-[4-{5-[(5-Benzyloxycarbonylamino)-1-(S)-methoxycarbonyl]pentylaminocarbonylpentyloxy}benzoyl]-4-piperidinyl}-3,4-dihydrocarbostyril] gave an IC50 of 540 nM.

The same assay, now with this note: read-out: IC50.
For the compound `CCOc1ccc(C(=O)N2CCC(n3c(=O)ccc4ccc(F)cc43)CC2)c(OC)c1` [Example 151, 1-[1-(2-Methoxy-4-ethoxybenzoyl)-4-piperidinyl]-7-fluorocarbostyril], the IC50 was 160 nM.
